Results reported in patent US12691110B2 (Massachusetts Eye and Ear Infirmary, priority 2022, dated 2026).

Assays:
[1] = system: C-PVR cells; test: CyQuant cell proliferation assay in human patient derived primary cultures of PVR; type: cell-based
Protocol: Twelve candidate drugs were tested at 2 concentrations at 72 hours for their effects on proliferation and cytotoxicity in C-PVR cells. […] Each anti-proliferative drug was tested at 2 concentrations determined by using the IC50 of each drug. The data was expressed as percent cell inhibition.
The cells were washed and the CyQuant Direct nucleic acid stain was added and incubated at 37 degrees in the incubator. Fluorescence read outs were measured at wavelengths as instructed in the protocol.

[2] = system: human PVR explants; test: Ex vivo human PVR explant outgrowth and sprouting model; type: cell-based; details: for total branch length of outgrowths: vehicle 167 mm; for sprouting distance from the explant (in words): 3-10 days
[3] = Homo sapiens, 72 hours, C-PVR cells
[4] = Homo sapiens, 5 μM, 72 hours, C-PVR cells

Nc1cccc2c1CN(C1CCC(=O)NC1=O)C2=O (stereo not shown) [lenalidomide]
inhibition of proliferation ([1]; concentration not given, 72 hours, C-PVR cells): 24%

CC(C)[C@H](O)C(=O)N[C@@H](C)C(=O)N[C@@H]1C(=O)N(C)CCc2ccccc21 [semagacestat]
inhibition at 1 µM [1, 3]: 28% | inhibition at 5 µM [1, 4]: 30%

Cc1cn([C@H]2C=C[C@@H](CO)O2)c(=O)[nH]c1=O [stavudine]
inhibition at 5 µM [1, 4]: 19%

COc1cccc2c1C(=O)c1c(O)c3c(c(O)c1C2=O)C[C@@](O)(C(C)=O)C[C@@H]3O[C@H]1C[C@H](N)[C@H](O)[C@H](C)O1 [Daunorubicin]
reduction in proliferation ([1]; 15 nM, 72 hours, C-PVR cells): 50% | reduction in proliferation ([1]; 30 nM, 72 hours, C-PVR cells): 53%

CC[C@@]1(O)C(=O)OCc2c1cc1n(c2=O)Cc2cc3c(CN(C)C)c(O)ccc3nc2-1 [Topotecan, topotecan]
decrease in proliferation ([1]; 40 nM, 72 hours, C-PVR cells): 54% | decrease in proliferation ([1]; 80 nM, 72 hours, C-PVR cells): 53% | inhibition of proliferation of C-PVR cells (in words) ([1]; concentrations of 40 nM and 80 nM, FIG. 1B): effectively inhibited the proliferation of C-PVR cells | total branch length of outgrowths ([2]; 40 nM (so in the source)): 34 mm | sprouting distance from the explant (in words) ([2]; 80 nM alone): statistically significant reduction in sprouting distance

COC(=O)N[C@H](C(=O)N1CCC[C@H]1c1ncc(-c2ccc(-c3ccc(-c4cnc([C@@H]5CCCN5C(=O)[C@@H](NC(=O)OC)C(C)C)[nH]4)cc3)cc2)[nH]1)C(C)C [daclatsvir]
inhibition of cell proliferation ([1]; 5 μM, 72 hours, C-PVR cells): 16%

O=C1CN=C(c2ccc[nH]2)c2cc(Cl)ccc2N1 [RUNX1 inhibitor, Ro5-3335]
inhibition of growth of C-PVR cells (in words) ([1]; 150 μM alone, 48 and 72 hours): efficacious at inhibiting growth of C-PVR cells

N[C@@H](Cc1ccc(N(CCCl)CCCl)cc1)C(=O)O [melphalan, 4-[bis(2-chloroethyl)amino]-L-phenylalanine]
reduction of cell proliferation ([1]; 60 μM, 72 hours, C-PVR cells): 83% | inhibition at 30 µM ([1]; Homo sapiens, 30 μM, 72 hours, C-PVR cells): 74% | inhibition of proliferation of C-PVR cells (in words) ([1]; concentrations of 30 nM and 60 nM (so in the source), FIG. 1A): effectively inhibited the proliferation of C-PVR cells | sprouting distance from the explant (in words) ([2]; 30 μM alone): statistically significant reduction in sprouting distance | total branch length of outgrowths ([2]; 30 μM): 27.5 mm

Cn1c(CCCC(=O)O)nc2cc(N(CCCl)CCCl)ccc21 [bendamustine]
inhibition at 1 µM [1, 3]: 25% | inhibition at 5 µM [1, 4]: 20%

CN1CCN(c2c(F)cc3c(=O)c(C(=O)O)cn4c3c2OCN4C)CC1 [marbofloxacin]
inhibition at 5 µM [1, 4]: 30%

Oc1ccc(C=Cc2cc(O)cc(O)c2)cc1 [resveratrol]
inhibition at 5 µM [1, 4]: 28%
